According to patent US8114589B2, “Self-addressable self-assembling microelectronic integrated systems, component devices, mechanisms, methods, and procedures for molecular biological analysis and diagnostics” (Gamida For Life B.V., priority 1996, dated 2012):
One block for each compound: values may come before it.

Test: Conductivity measurements of transport buffers
Assay type: physicochemical
Details: for Average/Std. Deviation / Measurement 1 / Measurement 2 / Measurement 3: conductivity

Compound: [Cl-].[Na+] [10 mM NaCl, NaCl]
Average/Std. Deviation: 1.12 +/− 0.057 mS/cm
Measurement 1: 1.07 mS/cm
Measurement 2: 1.10 mS/cm
Measurement 3: 1.18 mS/cm
Average/Std. Deviation (listed as 0.1 mM NaCl): 9.43 +/− 0.93 μS/cm
Measurement 1 (listed as 0.1 mM NaCl): 8.80 μS/cm
Measurement 2 (listed as 0.1 mM NaCl): 8.98 μS/cm
Measurement 3 (listed as 0.1 mM NaCl): 10.5 μS/cm
Average/Std. Deviation (listed as 1 mM NaCl): 112.7 +/− 2.08 μS/cm
Measurement 1 (listed as 1 mM NaCl): 112 μS/cm
Measurement 2 (listed as 1 mM NaCl): 115 μS/cm
Measurement 3 (listed as 1 mM NaCl): 111 μS/cm

Compound: CC(=O)[O-].[Na+] [10 mM NaAcetate]
Average/Std. Deviation: 934 +/− 43.5 μS/cm
Measurement 1: 901 μS/cm
Measurement 2: 917 μS/cm
Measurement 3: 983 μS/cm

Compound: Tris-Borate [100 mM Tris-Borate]
conductivity: 694 μS/cm

The remaining lines, values ahead:

Average/Std. Deviation: 2.03 +/− 0.09 mS/cm
Measurement 1: 1.95 mS/cm
Measurement 2: 2.02 mS/cm
Measurement 3: 2.13 mS/cm
Average/Std. Deviation (listed as 0.1 mM MgCl2): 17.3 +/− 0.87 μS/cm
Measurement 1 (listed as 0.1 mM MgCl2): 16.9 μS/cm
Measurement 2 (listed as 0.1 mM MgCl2): 16.7 μS/cm
Measurement 3 (listed as 0.1 mM MgCl2): 18.3 μS/cm
Average/Std. Deviation (listed as 1 mM MgCl2): 186 +/− 18.8 μS/cm
Measurement 1 (listed as 1 mM MgCl2): 174 μS/cm
Measurement 2 (listed as 1 mM MgCl2): 208 μS/cm
Measurement 3 (listed as 1 mM MgCl2): 177 μS/cm
Compound: [Cl-].[Cl-].[Mg+2] [10 mM MgCl2, MgCl2]

Average/Std. Deviation: 1.06 +/− 0.055 mS/cm
Measurement 1: 1.02 mS/cm
Measurement 2: 1.03 mS/cm
Measurement 3: 1.12 mS/cm
Compound: O=C([O-])C(=O)[O-].[Na+].[Na+] [5 mM NaOxalate]

Average/Std. Deviation: 3.35 +/− 0.19 mS/cm
Measurement 1: 3.50 mS/cm
Measurement 2: 3.14 mS/cm
Measurement 3: 3.40 mS/cm
Average/Std. Deviation (listed as 10 mM TRIS): 572 +/− 10.5 μS/cm
Measurement 1 (listed as 10 mM TRIS): 572 μS/cm
Measurement 2 (listed as 10 mM TRIS): 562 μS/cm
Measurement 3 (listed as 10 mM TRIS): 583 μS/cm
Compound: NC(CO)(CO)CO [50 mM TRIS, TRIS]
